Source: patent US11098038B2, “Imidazole-based anticancer agents and derivatives thereof, and methods of making and using same” (The University of Toledo, priority 2017, dated 2021)

Experiments:
T-47D = experiment: NCI 60 screen, T-47D; type: cell-based; conditions: Homo sapiens, T47D, Breast
Procedure: (§1) The compounds synthesized were tested at the National Cancer Institute (NCI) for anti-proliferative activity in the 60 human tumor cell line assay.

DU-145 = experiment: NCI 60 screen, DU-145; type: cell-based; conditions: Homo sapiens, Prostatic
Procedure: as §1

HS 578T = experiment: NCI 60 screen, HS 578T; type: cell-based; conditions: Homo sapiens, Breast
Procedure: as §1

A498 = experiment: NCI 60 screen, A498; type: cell-based; conditions: Homo sapiens, Renal
Procedure: as §1

MALME-3M = experiment: NCI 60 screen, MALME-3M; type: cell-based; conditions: Homo sapiens, Melanoma
Procedure: as §1

SF-295 = experiment: NCI 60 screen, SF-295; type: cell-based; conditions: Homo sapiens, CNS
Procedure: as §1

NCI-460 = experiment: NCI 60 screen, NCI-460; type: cell-based; conditions: Homo sapiens, Non-Small Cell Lung
Procedure: as §1

PC-3 = experiment: NCI 60 screen, PC-3; type: cell-based; conditions: Homo sapiens, Prostatic
Procedure: as §1

NCI-H226 = experiment: NCI 60 screen, NCI-H226; type: cell-based; conditions: Homo sapiens, Non-Small Cell Lung
Procedure: as §1

HCT-116 = experiment: NCI 60 screen, HCT-116; type: cell-based; conditions: Homo sapiens, Colon
Procedure: as §1

HOP-92 = experiment: NCI 60 screen, HOP-92; type: cell-based; conditions: Homo sapiens, Non-Small Cell Lung
Procedure: as §1

MDA-MB-468 = experiment: NCI 60 screen, MDA-MB-468; type: cell-based; conditions: Homo sapiens, Breast
Procedure: as §1

UACC-257 = experiment: NCI 60 screen, UACC-257; type: cell-based; conditions: Homo sapiens, Melanoma
Procedure: as §1

SK-MEL-2 [1] = experiment: NCI 60 screen, SK-MEL-2 (second line); type: cell-based; conditions: Homo sapiens; Melanoma, SK-MEL-2 (second of two lines so named, r38)
Procedure: as §1

SR = experiment: NCI 60 screen, SR; type: cell-based; conditions: Homo sapiens, Leukemia
Procedure: as §1

OVCAR-5 = experiment: NCI 60 screen, OVCAR-5; type: cell-based; conditions: Homo sapiens, Ovarian
Procedure: as §1

EKVX = experiment: NCI 60 screen, EKVX; type: cell-based; conditions: Homo sapiens, Non-Small Cell Lung
Procedure: as §1

OVCAR-4 = experiment: NCI 60 screen, OVCAR-4; type: cell-based; conditions: Homo sapiens, Ovarian
Procedure: as §1

BT-549 = experiment: NCI 60 screen, BT-549; type: cell-based; conditions: Homo sapiens, Breast
Procedure: as §1

NCI-322M = experiment: NCI 60 screen, NCI-322M; type: cell-based; conditions: Homo sapiens, Non-Small Cell Lung
Procedure: as §1

MDA-MB-435 = experiment: NCI 60 screen, MDA-MB-435; type: cell-based; conditions: Homo sapiens, Melanoma
Procedure: as §1

LOX IMVI = experiment: NCI 60 screen, LOX IMVI; type: cell-based; conditions: Homo sapiens, Melanoma
Procedure: as §1

NCI-H23 = experiment: NCI 60 screen, NCI-H23; type: cell-based; conditions: Homo sapiens, Non-Small Cell Lung
Procedure: as §1

COLO 205 = experiment: NCI 60 screen, COLO 205; type: cell-based; conditions: Homo sapiens, Colon
Procedure: as §1

SF-539 = experiment: NCI 60 screen, SF-539; type: cell-based; conditions: Homo sapiens, CNS
Procedure: as §1

CCRF-CEM = experiment: NCI 60 screen, CCRF-CEM; type: cell-based; conditions: Homo sapiens, Leukemia
Procedure: as §1

OVCAR-3 = experiment: NCI 60 screen, OVCAR-3; type: cell-based; conditions: Homo sapiens, Ovarian
Procedure: as §1

RXF393 = experiment: NCI 60 screen, RXF393; type: cell-based; conditions: Homo sapiens, RXF 393, Renal
Procedure: as §1

UO-31 = experiment: NCI 60 screen, UO-31; type: cell-based; conditions: Homo sapiens, Renal
Procedure: as §1

NCI-H522 = experiment: NCI 60 screen, NCI-H522; type: cell-based; conditions: Homo sapiens, Non-Small Cell Lung
Procedure: as §1

UACC-62 = experiment: NCI 60 screen, UACC-62; type: cell-based; conditions: Homo sapiens, Melanoma
Procedure: as §1

SN12C = experiment: NCI 60 screen, SN12C; type: cell-based; conditions: Homo sapiens, Renal
Procedure: as §1

KM12 = experiment: NCI 60 screen, KM12; type: cell-based; conditions: Homo sapiens, Colon
Procedure: as §1

HL-60(TB) = experiment: NCI 60 screen, HL-60(TB); type: cell-based; conditions: Homo sapiens, Leukemia
Procedure: as §1

NCI/ADR-RES = experiment: NCI 60 screen, NCI/ADR-RES; type: cell-based; conditions: Homo sapiens, Ovarian
Procedure: as §1

MOLT-4 = experiment: NCI 60 screen, MOLT-4; type: cell-based; conditions: Homo sapiens, Leukemia
Procedure: as §1

RPMI-8226 = experiment: NCI 60 screen, RPMI-8226; type: cell-based; conditions: Homo sapiens, Leukemia
Procedure: as §1

HOP-62 = experiment: NCI 60 screen, HOP-62; type: cell-based; conditions: Homo sapiens, Non-Small Cell Lung
Procedure: as §1

SF-268 = experiment: NCI 60 screen, SF-268; type: cell-based; conditions: Homo sapiens, CNS
Procedure: as §1

SK-OV-3 = experiment: NCI 60 screen, SK-OV-3; type: cell-based; conditions: Homo sapiens, Ovarian
Procedure: as §1

HCC-2998 = experiment: NCI 60 screen, HCC-2998; type: cell-based; conditions: Homo sapiens, Colon
Procedure: as §1

A549/ATCC = experiment: NCI 60 screen, A549/ATCC; type: cell-based; conditions: Homo sapiens, Non-Small Cell Lung
Procedure: as §1

MDA-MB-231/ATCC = experiment: NCI 60 screen, MDA-MB-231/ATCC; type: cell-based; conditions: Homo sapiens, Breast
Procedure: as §1

SK-MEL-5 = experiment: NCI 60 screen, SK-MEL-5; type: cell-based; conditions: Homo sapiens, Melanoma
Procedure: as §1

M14 = experiment: NCI 60 screen, M14; type: cell-based; conditions: Homo sapiens, Melanoma
Procedure: as §1

TK-10 = experiment: NCI 60 screen, TK-10; type: cell-based; conditions: Homo sapiens, Renal
Procedure: as §1

HCT15 = experiment: NCI 60 screen, HCT15; type: cell-based; conditions: Homo sapiens, HCT-15, Colon
Procedure: as §1

U251 = experiment: NCI 60 screen, U251; type: cell-based; conditions: Homo sapiens, U-251, CNS
Procedure: as §1

ACHN = experiment: NCI 60 screen, ACHN; type: cell-based; conditions: Homo sapiens, Renal
Procedure: as §1

SNB-19 = experiment: NCI 60 screen, SNB-19; type: cell-based; conditions: Homo sapiens, CNS
Procedure: as §1

CAKI-1 = experiment: NCI 60 screen, CAKI-1; type: cell-based; conditions: Homo sapiens, Renal
Procedure: as §1

K-562 = experiment: NCI 60 screen, K-562; type: cell-based; conditions: Homo sapiens, K562, Leukemia
Procedure: as §1

SNB-75 = experiment: NCI 60 screen, SNB-75; type: cell-based; conditions: Homo sapiens, CNS
Procedure: as §1

HT29 = experiment: NCI 60 screen, HT29; type: cell-based; conditions: Homo sapiens, HT-29, Colon
Procedure: as §1

786-0 = experiment: NCI 60 screen, 786-0; type: cell-based; conditions: Homo sapiens, Renal
Procedure: as §1

OVCAR-8 = experiment: NCI 60 screen, OVCAR-8; type: cell-based; conditions: Homo sapiens, Ovarian
Procedure: as §1

SW-620 = experiment: NCI 60 screen, SW-620; type: cell-based; conditions: Homo sapiens, Colon
Procedure: as §1

IGROV1 = experiment: NCI 60 screen, IGROV1; type: cell-based; conditions: Homo sapiens, IGROV-1, Ovarian
Procedure: as §1

MCF7 = experiment: NCI 60 screen, MCF7; type: cell-based; conditions: Homo sapiens, Breast
Procedure: as §1

SK-MEL-2 [2] = experiment: NCI 60 screen, SK-MEL-2 (first line); type: cell-based; conditions: Homo sapiens; Melanoma, SK-MEL-2 (first of two lines so named, r37)
Procedure: as §1

Cn1ccnc1C(=O)/C=C/c1ccc(CC(=O)Nc2ccc(F)cc2)cc1 [Compound 28, (E)-N-(4-fluorophenyl)-2-(4-(3-(1-methyl-1H-imidazol-2-yl)-3-oxoprop-1-en-1-yl)phenyl)acetamide]
GI50 (T-47D): 8.34 µM
melting point: 213 °C
GI50 (DU-145): 1.24 µM
GI50 (HS 578T): 1.5 µM
GI50 (A498): 5.56 µM
GI50 (MALME-3M): 5.28 µM
GI50 (SF-295): 4.55 µM
GI50 (NCI-460): 1.8 µM
GI50 (PC-3): 1.99 µM
GI50 (NCI-H226): 8.57 µM
GI50 (HCT-116): 0.99 µM
GI50 (HOP-92): 4.51 µM
GI50 (MDA-MB-468): 1.72 µM
GI50 (UACC-257): 6.99 µM
GI50 (SK-MEL-2 [1]): 4.47 µM
GI50 (SR): 0.51 µM
GI50 (OVCAR-5): 4.36 µM
GI50 (EKVX): 5.5 µM
GI50 (OVCAR-4): 5.68 µM
GI50 (BT-549): 1.32 µM
GI50 (NCI-322M): 2.07 µM
GI50 (MDA-MB-435): 4.25 µM
GI50 (LOX IMVI): 0.71 µM
GI50 (NCI-H23): 3.04 µM
GI50 (COLO 205): 4.39 µM
GI50 (SF-539): 3.59 µM
GI50 (CCRF-CEM): 2 µM
GI50 (OVCAR-3): 0.96 µM
GI50 (RXF393): 3.89 µM
GI50 (UO-31): 1.72 µM
GI50 (NCI-H522): 3.34 µM
GI50 (UACC-62): 3.51 µM
GI50 (SN12C): 1.62 µM
GI50 (KM12): 1.62 µM
GI50 (HL-60(TB)): 1.6 µM
GI50 (NCI/ADR-RES): 4.24 µM
GI50 (MOLT-4): 2.32 µM
GI50 (RPMI-8226): 1.02 µM
GI50 (HOP-62): 4.68 µM
GI50 (SF-268): 2.89 µM
GI50 (SK-OV-3): 9.81 µM
GI50 (HCC-2998): 3.78 µM
GI50 (A549/ATCC): 6.43 µM
GI50 (MDA-MB-231/ATCC): 2.96 µM
GI50 (SK-MEL-5): 4.45 µM
GI50 (M14): 3.23 µM
GI50 (TK-10): 10.5 µM
GI50 (HCT15): 1.29 µM
GI50 (U251): 1.4 µM
GI50 (ACHN): 5.74 µM
GI50 (SNB-19): 2.74 µM
GI50 (CAKI-1): 3.14 µM
GI50 (K-562): 0.82 µM
GI50 (SNB-75): 3.74 µM
GI50 (HT29): 2.27 µM
GI50 (786-0): 1.37 µM
GI50 (OVCAR-8): 5.71 µM
GI50 (SW-620): 1.97 µM
GI50 (IGROV1): 2.93 µM
GI50 (MCF7): 1.04 µM
GI50 (SK-MEL-2 [2]): 7.01 µM
